Data set [1] is described as follows: Particle size and polydispersity index (PDI) of lipid nanoparticles by dynamic light scattering. The format is physicochemical. As to conditions: for PDI: LNP formulation of the cationic lipid, 25° C.; for Particle size: LNP formulation of the cationic lipid/DSPC/cholesterol/DMG-PEG2000 49:10:39.5:1.5, 25° C. Here is the method:
The particle size and polydispersity index (PDI) were determined by dynamic light scattering using Malvern laser particle size analyzer.
10 μL of the liposome solution was weighed, diluted to 1 mL with RNase-free deionized water, and added to the sample pool. Each sample was measured in triplicate. The measurement conditions were: […] scattering angle, and 25° C.

Data set [2] is described as follows: Detection of encapsulation efficiency, drug loading concentration and total RNA concentration (RiboGreen). The format is physicochemical. As to conditions: LNP formulation prepared from the cationic lipid. The source says: Encapsulation efficiency is a key quality attribute of liposomes, which refers to the percentage of drug content encapsulated in the lipid bimolecular layer accounting for the total drug dose and can reflect the degree of drug encapsulation in liposomes. The Chinese Pharmacopoeia stipulates that the encapsulation efficiency should generally not be less than 80%.
The drug loading amount is the ratio of the amount of drug in the liposome to the total amount of drug and carrier in the liposome. The drug loading amount directly affects the clinical application dose of the drug. […] The drug loading concentration is proportional to the drug loading amount, and the relative proportion of the drug loading concentrations can represent the relative proportion of the drug loading amounts. The relative ratio of the total RNA concentrations may represent the relative ratio of the amounts of mRNA carried by the LNP formulations.
1×TE buffer, 0.1% Triton X-100 buffer, RiboGreen reagent (1: 200) and mRNA standard stock solution were prepared.
An appropriate amount of the sample was added to an appropriate amount of 1×TE buffer, and the mixture was diluted to obtain a solution containing approximately […] sample per 1 mL. Then the sample was added to a 96-well plate, and 50 μL of the diluted test sample or the mRNA standard stock solution was added to each well, then 1×TE buffer and 0.1% Triton X-100 buffer were added. The sample was incubated at 37° C. for 10 minutes, and 100 μL RiboGreen reagent (1:200) was added to each well of the test sample in the 96-well plate. The sample was centrifugated, and the data were read using a microplate reader, and processed.

In data set [3] the test system is 293T cells. The experiment in a line: Fluorescent detection of Fluc-mRNA (cell transfection efficiency of LNP formulations). It is filed as cell-based. As to conditions: for Relative light unit (RLU): LNP with 0.3 μg Fluc-mRNA, 96-well plate, 24 hours. The protocol:
(§1) Seeding plate: The cells in the culture dish were digested and counted. Cells were spread in a 96-well plate at 10,000 cells per well and in a 12-well plate at 150,000 cells per well. Cells were cultured overnight until the cells adhered to the wall.
The corresponding reagents were added according to the instructions of the Gaussia Luciferase Assay Kit, and the fluorescence expression intensity of each well was detected by an IVIS fluorescence detection system.

Data set [4] has as its system 293T cells. Briefly: Cell survival rate assay (CCK-8). It is filed as cell-based. As to conditions: LNP with 1.5 μg Fluc-mRNA, 24 hours, CCK-8. Here is the method:
Cell recovery and passage: 293T cells were recovered, cultured in a culture dish, and passaged to the required number of cells.
as §1
An LNP formulation containing 1.5 μg of Fluc-mRNA (prepared according to example 4, the carrier components of the LNP formulation were cationic lipid, neutral lipid, structured lipid and polymer-conjugated lipid at a molar ratio of 49:10:39.5:1.5, wherein the cationic lipid was listed in Table 1) and the formulation of Lipofectamine 3000 were added to the cell culture medium of a 96-well plate, and further cultivated for 24 hours. 10 μL of CCK-8 solution was then added to each well, and the culture plate was incubated in an incubator for 1 hour. The absorbance at 450 nm was measured by a microplate reader.

Data set [5] deals with female BALB/C mice. The experiment in a line: In vivo imaging in mice of Fluc-mRNA LNP formulations (mRNA expression and duration). Conditions: Fluc-mRNA LNP intramuscular; for average radiation intensity, 6 h: 6 h after administration; for average radiation intensity, 24 h: 24 h after administration; for average radiation intensity, 48 h: 48 h after administration; for average radiation intensity, 7 d: 7 d after administration. The protocol: (§2) The LNP formulation (prepared according to Example 4) containing […] Fluc-mRNA was injected intramuscularly into female BALB/C mice aged 4-6 weeks and weighed 17-19 g, and the mice were intraperitoneally injected with fluorescent imaging substrate at specific time points after administration (6h, 24 h, 48h and 7d), where the mice were allowed to free move for 5 minutes, and then the average radiation intensity (corresponding to fluorescence expression intensity) of the protein expression of the mRNA carried by the LNP in the mice was detected by the IVIS Spectrum small animal in vivo imaging system.

For data set [6], the system named is female BALB/C mice. Briefly: Distribution of liposomes in mice (protein expression in liver, spleen, lung, heart and kidney). It is filed as in vivo. The protocol: as §2
Current mRNA vaccines usually express proteins in muscle.

Data set [7] relates to 293T cells. The experiment in a line: Fluorescent detection of Fluc-mRNA (cell transfection efficiency of LNP formulations). It is filed as cell-based.

In the case of `CCCCCCCCCCCOC(=O)CCCCCN(CCO)CCCCCCCC(=O)OC(CCCCCCCC)CCCCCCCC` [SM-102, reference compound], in data set [1], the PDI was found to be 22.3% and the Particle size came to 154 nm. Also, in data set [2], the Drug loading concentration was 26.53 µg/mL, the Encapsulation efficiency was found to be 62.9% and the “Total RNA concentration” value worked out at 36.04 µg/mL. Besides, in the data set on 293T cells [3], the “Relative light unit (RLU)” value is recorded as 1704121 RLU. The Cell survival rate in the data set with 293T cells [4] is recorded as 67.90%. In the data set on female BALB/C mice [5], the “average radiation intensity, 6 h” value is 691480; the “average radiation intensity, 24 h” value came to 123380; the “average radiation intensity, 48 h” value came out at 32871; the “average radiation intensity, 7 d” value was determined as 6723. Also, in the data set with female BALB/C mice [6] (mouse, in vivo), the “protein expression in the liver” value is given as “had protein expression in the liver” and the “protein expression in the spleen” value is reported as “had protein expression in the spleen”.
In data set [1], `CCCCCCCCCCOC(=O)CCCCCN(CCO)CCN(CCO)CCCCCC(=O)OCCC(CCCCCC)CCCCCC` [YK-411] had a PDI of 5.2% and a Particle size of 150 nm. Further, in data set [2], the Drug loading concentration was 36.72 µg/mL, the Encapsulation efficiency was determined as 86.3% and the “Total RNA concentration” value was 42.57 µg/mL. In addition, the “Relative light unit (RLU)” value in the data set on 293T cells [3] is given as 7976 RLU. In addition, the Cell survival rate with 293T cells [4] came out at 16.33%. In the data set with female BALB/C mice [5], the “average radiation intensity, 6 h” value amounted to 5850; the “average radiation intensity, 24 h” value is on record as 2022; the “average radiation intensity, 48 h” value amounted to 975; the “average radiation intensity, 7 d” value is 480. Also, in the data set with female BALB/C mice [6] (mouse, in vivo), the “protein expression in the liver” value is recorded as “had no protein expression in the liver”.
In data set [1], “bis(3-hexylnonyl) 8,8′-((2-hydroxyethyl) azanediyl)dioctanoate [Compound 23, reference compound]” displayed a PDI of 12.1% and a Particle size of 147 nm. Besides, in data set [2], the Drug loading concentration is 20.01 µg/mL, the Encapsulation efficiency was determined as 56.2% and the “Total RNA concentration” value turned out to be 31.05 µg/mL. In the data set on 293T cells [3], the “Multiple of YK-401” value stood at 4.00 and the “Relative light unit (RLU)” value turned out to be 1402597 RLU. Besides, the Cell survival rate in the data set with 293T cells [4] worked out at 69.11%. In the data set with female BALB/C mice [5], the “average radiation intensity, 6 h” value is given as 581400; the “average radiation intensity, 24 h” value is reported as 100970; the “average radiation intensity, 48 h” value is listed as 32917; the “average radiation intensity, 7 d” value was found to be 6105. Moreover, the “protein expression in the liver” value in the data set on female BALB/C mice [6] (mice, intramuscular Fluc-mRNA LNP, at 6h (FIG. 14)) is “had protein expression in the liver”. Besides, the “Multiple of YK-402” value in the data set with 293T cells [7] (RLU of YK-402 divided by RLU of the lipid named in the row) was determined as 3.60. In addition, the “Multiple of YK-403” value in the data set on 293T cells [7] (RLU of YK-403 divided by RLU of the lipid named in the row) amounted to 3.74. For the same compound, the “Multiple of YK-407” value in the data set with 293T cells [7] (RLU of YK-407 divided by RLU of the lipid named in the row) was determined as 14.53. For the same compound, the “Multiple of YK-422” value in the data set with 293T cells [7] (RLU of YK-422 divided by RLU of the lipid named in the row) amounted to 4.59. In addition, the “Multiple of YK-423” value in the data set with 293T cells [7] (RLU of YK-423 divided by RLU of the lipid named in the row) came out at 4.44. Also, in the data set with 293T cells [7] (RLU of the lipid divided by RLU of SM-102), the “Ratio relative to SM-102 (RLU, times that of SM-102)” value is given as 0.82.
